Experimental findings from PMC8972805, “Monomodular Pseudomonas aeruginosa phage JG004 lysozyme (Pae87) contains a bacterial surface-active antimicrobial peptide-like region and a possible substrate-binding subdomain” (Acta Crystallographica. Section D, Structural Biology, 2022) are described below.

This assay concerns the target T1, Pae87 (Pseudomonas phage JG004, UniProt F4YDQ3).
T1 construct: gene PJG4_087; full length, 186 residues, N-terminal 6xHis tag (pET-28a(+), tag kept, up to two tag residues modelled), synthetic gene, expressed in E. coli BL21(DE3); one molecule in asymmetric unit of the complex
The assay is described as follows: X-ray crystal structure of complex, […] Å. Type of assay: binding. As to conditions: fragment from PAO1 peptidoglycan hydrolysed by Pae87; second site about 18 Å from catalytic site (helices 4, 5 and 7); Tris-HCl pH 8.0, PEG MME 5000.

T1 sequence (F4YDQ3 entry or part of it): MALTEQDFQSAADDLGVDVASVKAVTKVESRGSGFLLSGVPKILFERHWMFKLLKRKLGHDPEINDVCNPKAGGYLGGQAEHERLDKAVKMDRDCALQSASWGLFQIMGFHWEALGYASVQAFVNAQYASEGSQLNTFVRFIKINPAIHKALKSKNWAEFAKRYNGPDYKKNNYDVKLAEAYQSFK

For the compound `CC(=O)N[C@H]1[C@H](O[C@H]2[C@H](O[C@H](C)C(=O)N[C@@H](C)C(=O)N[C@H](CCC(=O)O)C(=O)O)[C@@H](NC(C)=O)C(O)O[C@@H]2CO)O[C@H](CO)[C@@H](O)[C@@H]1O` (stereo partly shown) [peptidoglycan fragment], the “X-ray crystal structure of complex, 1.27 Å” value was “the peptidoglycan fragment (comprised of linked NAG, MurNAc, L-alanine”.
